Measured values: patent US20220062331A1, “TREATING IRON DEFICIENCY IN SUBJECTS AT RISK OF CARDIOVASCULAR ADVERSE EVENTS AND IRON FOR THE MANAGEMENT OF ATRIAL FIBRILLATION” (PHARMACOSMOS HOLDING A/S, priority 2019, published 2022)

Experiments:
iFGF23 (intact FGF23) = details: cited from earlier work
[1] = CKD-04 Phase III study: protocol defined cardiovascular adverse events; assay type: in vivo, human; details: for composite cardiovascular events (incidence, % of patients): CKD-04 study, IIM 1000 mg single dose (1019 patients) vs iron sucrose 5 x 200 mg (506 patients), within 8 weeks
Procedure: (§1) Two Phase III randomized, open-label, comparative safety and efficacy studies were performed in relation to treatment with iron isomaltoside (“IIM”, tradename Monofer®, Monoferric®) and iron sucrose (“IS”, trade name Venofer®) in adult human subjects with iron deficiency anaemia and non-dialysis-dependent chronic kidney disease. These studies allowed comparing the incidence of treatment-emergent cardiovascular adverse events in particular in patients with cardiovascular risk factors.
(§2) The studies were randomized, open-label, comparative studies. Subjects with iron deficiency anaemia (IDA) were randomized 1:1 to one treatment course of one of two treatments. Iron isomaltoside 1000 was administered as a single dose of 1000 mg of elemental iron. Iron sucrose was administered as 200 mg slow intravenous bolus injections according to its US label and repeated up to 5 times to reach a cumulative dose of 1000 mg. […]

[2] = IDA-03 Phase III study: protocol defined cardiovascular adverse events; assay type: in vivo, human; details: IDA-03 study, 989 vs 494 patients, within 8 weeks
Procedure: as §1, §2

[3] = Combined CKD-04/IDA-03 studies: treatment-emergent cardiovascular and congestive heart failure adverse events; assay type: in vivo; details: for composite cardiovascular events (incidence, % of patients): 2008 patients on IIM, p=0.0176; for treatment-emergent congestive heart failure adverse events (% of patients) / worsening/exacerbation of heart failure (% of cases): all patients with CHF
Procedure: as §1
The studies were randomized, open-label, comparative studies. Subjects with iron deficiency anaemia (IDA) were randomized 1:1 to one treatment course of one of two treatments. Iron isomaltoside 1000 was administered as a single dose of 1000 mg of elemental iron. Iron sucrose was administered as 200 mg slow intravenous bolus injections according to its US label and repeated up to 5 times to reach a cumulative dose of 1000 mg.
Said protocol defined cardiovascular adverse events were as follows: • (1) Congestive heart failure requiring hospitalization or medical intervention: • Congestive heart failure requiring hospitalization or medical intervention was defined as meeting the following criteria: • Requires hospitalization defined as an admission to an inpatient unit or a visit to an emergency department that results in at least a 12-hour stay (or a date change if the time of admission/discharge is not available); AND • Clinical manifestation of congestive heart failure including at least one of the following: new or worsening dyspnoea, orthopnoea, paroxysmal nocturnal dyspnoea, oedema, pulmonary basilar crackles, jugular venous distension, or radiological evidence of worsening heart failure; AND • Additional/increased therapy: • Intravenous treatment with diuretic, inotrope, or vasodilator therapy; OR • Mechanical or surgical intervention (mechanical circulatory support, heart transplantation, or ventricular pacing to improve cardiac function) or the use of ultrafiltration, hemofiltration, or dialysis that is specifically directed at treatment of heart failure. • (2) Arrhythmia: • Arrhythmia was defined as any symptomatic deviation from normal sinus rhythm experienced by the subject that results in an evaluation by a health care provider. The evaluation included a physical examination during an outpatient visit, an ECG, or a hospital admission. […]

[4] = Combined CKD-04/IDA-03 studies: change from baseline in hemoglobin; assay type: in vivo, human
Procedure: The primary efficacy outcome measure was the ability to increase Hb (g/dL) within 8 weeks.
The co-primary efficacy endpoint was analysed using a restricted maximum likelihood (REML)-based mixed model for repeated measures (MMRM) approach. All subjects in the intention-to-treat (ITT) analysis set with post baseline Hb data was to be included with their observed data. The model included the fixed, categorical effects of treatment (iron isomaltoside and iron sucrose), week, treatment-by-week interaction, strata, as well as the continuous, fixed covariates of baseline Hb value and baseline Hb-by-week interaction. An unstructured (co)variance structure was used to model the within-subject errors. […] The Kenward-Roger approximation was to be used to estimate the denominator degrees of freedom. The primary comparisons will be the contrasts between iron isomaltoside and iron sucrose at week 8 based on the least squares means for the treatment-by-week interaction effect. The estimated mean difference based on this model was reported with two-sided symmetric 95% CI, and if the lower bound of the 95% CI is >−0.5 g/dL, the efficacy objective has been met.
The following efficacy laboratory parameters were analysed: • Hb: Hemoglobin was analyzed by the Coulter LH 750 System. Lytic reagents were used for the complete blood count parameters to prepare the blood so that the system could measure the amount of hemoglobin. The lytic reagent rapidly and simultaneously destroyed the erythrocytes and converted the substantial proportion of the hemoglobin to a stable pigment. The absorbance of the pigment was directly proportional to the hemoglobin concentration in the sample. […] A chemiluminescent substrate, Lumi-Phos* 530, was added to the reaction vessel and light generated by the reaction was measured with a luminometer. • TSAT (s-iron and transferrin will be collected to calculate the TSAT; TSAT=(iron μg/dL/transferrin mg/dL)×70.9). • S-iron: Serum iron (s-iron) was measured by a calorimetric assay using Roche automated clinical chemistry analyzer based on a immunoturbidimetric assay.

[5] = Randomized double-blind placebo-controlled trial in chronic heart failure patients: P-wave dispersion on 12-lead ECG (post-hoc analysis); assay type: in vivo, human
Excerpt: This study was a post-hoc analysis of a randomized, double-blind, placebo-controlled trial that was approved by the South-Central Berkshire ethics committee, the UK Medicines and Healthcare products Regulatory Agency, and the King's College Hospital independent research governance board. King's College London University and King's College Hospital NHS Foundation Trust were co-sponsors. The King's Health Partners clinical trial office monitored the trial and ensured compliance with the International Conference on Harmonization guidelines for Good Clinical Practice and the Declaration of Helsinki. Written informed consent was obtained from all patients. FIG. 1 represents a flow chart of the trial. A total of 25 chronic heart failure patients in normal sinus rhythm were recruited into this trial with 15 randomized to intravenous saline placebo and 10 randomized to intravenous iron isomaltoside.
Patients with stable, symptomatic, chronic heart failure and a left ventricular ejection fraction <45% were recruited from dedicated heart failure clinics at King's College Hospital, London. Main exclusion criteria were a history of acquired iron overload, known haemochromatosis or first degree relatives with haemochromatosis; an allergic disorder (e.g., asthma, eczema, and anaphylactic reactions); prior hypersensitivity to IV iron drugs or their excipients; active infection, bleeding, malignancy, haemolytic anemia, rheumatoid arthritis, and myelodysplasia; and HIV/AIDS.
After inclusion into the trial, patients had endpoints assessed which included a 12-lead surface electrocardiogram to measure P-wave dispersion (difference between maximum and minimum P-wave duration across all leads), heart rate (HR), PR interval, QRS duration, QT interval and corrected QT interval (QTc). FIG. 2 is an example of a surface electrocardiogram with P-wave durations measured. An echocardiogram was also done to measure LVEF, left ventricular end-diastolic volume (LVED), left ventricular end-systolic volume (LVES), left atrial (LA) volumes and right atrial (RA) volumes with and without indexing for body surface area. After baseline assessments, patients were then infused a total repletion dose of iron isomaltoside or an equivalent volume of normal saline placebo. Endpoints were then reassessed 2 weeks later. A Student's t-test or a Fisher's Exact test were statistically used to assess the baseline characteristics between the groups. An ANCOVA was used to statistically compare the week 2 endpoint results between the groups with adjustment for each variables baseline value.

[6] = iron-deficient CHF patients with LVEF ≤45%; single total dose infusion (Jaumdally et al., 2019); cited from earlier work
[7] = 20 elderly CHF patients, cited from earlier work
[8] = single total dose infusion; 2 weeks post-infusion; cited from earlier work

For ferric carboxymaltose, the “effect on iFGF23” value (iFGF23 (intact FGF23); see WO 2013/134273 A1) is listed as “significantly increases”.

For “ferric derisomaltose [iron isomaltoside 1000]”, the “probability of not experiencing an adjudicated composite adverse cardiovascular event, compared to iron sucrose” value ([1]; CKD-04, after 8 weeks, Kaplan-Meier) was “significantly higher”, the “composite cardiovascular events (incidence, % of patients)” value [1] was 4.1% and the “composite cardiovascular events (incidence, % of patients)” value [2] was 0.8%. The “composite cardiovascular events (incidence, % of patients)” value ([2]; listed as iron) was 1.2%, the “incidence on composite CV endpoint (and most sub-items including death from any cause) compared to Venofer and FCM (CDER report)” value ([3]; Ferwon studies vs Injectafer FDA CDER report) was “lower” and the “decrease of composite cardiovascular events when treated with iron isomaltoside 1000 versus iron sucrose” value ([3]; combined CKD-04/IDA-03) was 60%. The “composite cardiovascular events (incidence, % of patients)” value ([3]; combined CKD-04/IDA-03) was 2.5%, the “treatment-emergent congestive heart failure adverse events (% of patients)” value ([3]; combined CKD-04/IDA-03) was 1.8% and the “worsening/exacerbation of heart failure (% of cases)” value ([3]; combined CKD-04/IDA-03) was 1.8%. The “rates of congestive heart failure, hypertension, atrial fibrillation, hypotension, and cardiac arrest compared to iron sucrose” value ([3]; in each study (CKD-04, IDA-03, combined)) was “lower”, the “incidence for congestive heart failure” value ([3]; patients with CV risk) was 1.2% and the “worsening of congestive heart failure” value ([3]; patients with CV risk) was 1.2%. The “incidence for congestive heart failure” value ([3]; patients with CV risk and CHF) was 1.4%, the “worsening of congestive heart failure” value ([3]; patients with CV risk and CHF) was 1.4% and the “increase in Hb from baseline compared to iron sucrose” value ([4]; all patients, weeks 1 and 2, p<0.001) was “higher increase”. The “change in Hb from baseline compared to iron sucrose (primary efficacy endpoint)” value ([4]; all patients, weeks 4 and 8) was “non-inferiority”, the “increase in Hb from baseline” value ([4]; patients with congestive heart failure in medical history, week 1 and 2) was “higher increase” and the “P-wave dispersion, changes in individual patients (FIG. 5)” value ([5]; ANCOVA P-value 0.007, unchanged in saline placebo group) was “shortened”. The “reduction of P-wave dispersion” value ([5]; at 2 weeks after total repletion dose, vs saline placebo, P=0.007) was 10 ms, the “P-wave dispersion, adjusted difference between the groups (ANCOVA)” value ([5]; at 2 weeks, 95% confidence interval −17 & −3 msec, P=0.007) was -10 ms and the “P-wave dispersion difference after adjusting for size of the atria (indexed LA and RA volumes)” value ([5]; at 2 weeks, 95% confidence interval −18 & −4 msec, P=0.005) was -11 ms. For the same substance, the “effect on the other endpoints (HR, PR, QRS, QT, QTc, LVEF, LV and atrial volumes)” value ([5]; at 2 weeks, ANCOVA) was “no significant effect”, the P wave dispersion [6] was “attenuate” and the QoL measures [7] was “improved”. The tolerability ([7]; single fast intravenous infusion at relatively high doses without test dose) was “very well tolerated”, the iron stores [8] was “repleted” and the skeletal muscle energetics [8] was “augmented”. The “risk for increasing iFGF23 and triggering iFGF23-mediated effects” value (iFGF23 (intact FGF23); clinical trials, Wolf et al., 2019) was “low”.

For iron sucrose, the “composite cardiovascular events (incidence, % of patients)” value [1] was 6.9%, the “composite cardiovascular events (incidence, % of patients)” value ([3]; combined CKD-04/IDA-03) was 4.1% and the “treatment-emergent congestive heart failure adverse events (% of patients)” value ([3]; combined CKD-04/IDA-03) was 6.5%. The “worsening/exacerbation of heart failure (% of cases)” value ([3]; combined CKD-04/IDA-03) was 5.4%, the “incidence for congestive heart failure” value ([3]; patients with CV risk) was 3.5% and the “worsening of congestive heart failure” value ([3]; patients with CV risk) was 1.7%. The “incidence for congestive heart failure” value ([3]; patients with CV risk and CHF) was 4.9% and the “worsening of congestive heart failure” value ([3]; patients with CV risk and CHF) was 3.7%.
